Experimental data published in patent publication US20230201284A1, “Uses and Formulations of Cannabinoids” (priority 2020, published 2023).
Like-named read-outs stand apart in the source and are kept apart here.

Assays:
IL-6 secretion = conditions: cellular models, majority of cases; cited from earlier work
CD83 = conditions: cited from earlier work
[1] = systemic exposure after i.p. and oral application of CBD in mice (Deiana et al.); format: in vivo; conditions: 20 mg/kg, assuming dose-proportional plasma concentrations
Experimental: A comparative investigation for systemic exposure after i.p. and oral application of CBD in mice and rats has shown that 120 mg/kg as a single dose leads to a maximum plasma concentration of 14,000 ng/ml in mice (S. Deiana et al. (2012). Plasma and brain pharmacokinetic profile of cannabidiol (CBD), cannabidivarine (CBDV), Delta(9)-tetrahydrocannabivarin (THCV) and cannabigerol (CBG) in rats and mice following oral and intraperitoneal administration and CBD action on obsessive-compulsive behaviour. Psychopharmacology (Berl) 219(3): 859-73).

human neutrophils = conditions: cited from earlier work
microglial cells = conditions: 1-16 μmol/l; cited from earlier work
[2] = system: activated memory T cell line; conditions: 1-5 μmol/l, cited from earlier work
[3] = n-octanol/water; cited from earlier work
NK, NKT, T and B cells = conditions: healthy rats, cited from earlier work
IL-6 = conditions: animal models including diabetes, asthma, pancreatitis and hepatitis; cited from earlier work
[4] = system: chemically induced acute hepatitis; conditions: mice, 25 mg/kg; cited from earlier work
human mononuclear cells = conditions: nanomolar or micromolar concentrations; cited from earlier work
[5] = system: LPS-induced acute lung injury; conditions: cited from earlier work
[6] = mice, 120 mg/kg single dose; cited from earlier work
[7] = system: ischemia-reperfusion-induced kidney injury; conditions: mice, 10 mg/kg after induced kidney injury; cited from earlier work
[8] = prophylactic, i.p. 0.3-80 mg/kg 60 min before LPS
[9] = therapeutic, 6 h after LPS, 20 mg/kg

Structure (SMILES): C=C(C)[C@@H]1CCC(C)=C[C@H]1c1c(O)cc(CCCCC)cc1O [CBD, 2-[(1R,6R)-3-methyl-6-(1-methylethenyl)-2-cyclohexen-1-yl]-5-pentyl-1,3-benzenediol]
- effective concentration for suppressive effect on IL-6 secretion (IL-6 secretion): ~5 µM
- CD83 dendritic cell activation marker (CD83; dendritic cells from healthy individuals): not
- CD83 dendritic cell activation marker (CD83; dendritic cells from individuals with HIV infection): suppresses
- target peak exposure [1]: 2,300 ng/ml
- migration of human neutrophils (human neutrophils): inhibits
- apoptosis in microglial cells (microglial cells): induces apoptosis
- IL-6 production and secretion [2]: decreased
- production of IL-10 [2]: increased
- Th17 signature cytokine IL-17 ([2]; dose-dependently): decrease
- log P [3]: about 6.1
- numbers of NK cells and NKT cells (NK, NKT, T and B cells; 2.5 mg/kg per day): increased
- numbers of NK cells and NKT cells (NK, NKT, T and B cells; 5 mg/kg per day): not affected
- number of T cells including T helper cells and cytotoxic T cells and of B cells (NK, NKT, T and B cells; daily 5 mg/kg): significantly reduced
- circulating IL-6 (IL-6): suppress
- expression of MDSCs [4]: induces
- pro-inflammatory cytokines such as IL-2, TNF-α and IL-6 [4]: reduction
- release of pro-inflammatory cytokines (human mononuclear cells): suppressed
- number of leukocytes including macrophages and neutrophils in the bronchoalveolar lavage fluid ([5]; 20 mg/kg, after LPS-induced lung inflammation): decreases
- myeloperoxidase activity [5, 8]: significantly decreased
- pro-inflammatory cytokine production including TNF-α and IL-6 [5, 8]: significantly decreased
- total leukocytes migration [5, 8]: significantly decreased
- vascular permeability [5, 8]: significantly decreased
- leukocyte migration (neutrophil, macrophages and lymphocytes) into the lungs [5, 9]: decreased
- mechanical lung function [5, 9]: improved
- myeloperoxidase activity in the lung tissue [5, 9]: decreased
- production of proinflammatory cytokines/chemokines [5, 9]: reduced
- vascular permeability [5, 9]: reduced
- maximum plasma concentration [6]: 14,000 ng/ml
- decreased Treg17 levels and increased Th17 levels [7]: reversed these effects
- effect on kidney injury [7]: renoprotective
